Measured values from US6653296B1, “Antiretroviral enantiomeric nucleotide analogs” (Institute of Organic Chemistry and Biochemistry of the …, priority 1992, dated 2003).
In brackets after ≈: the same amount, converted by molar mass.

Assays:
[1] = system: Moloney murine sarcoma virus (MSV); assay: MSV-induced tumor formation and death in newborn NMRI mice, intraperitoneal administration; type: in vivo; details: for Mean day of animal death: observed 20 days
Protocol: Two gram newborn NMRI mice were injected intramuscularly in the left hind leg with 50 μl of 250-fold diluted stock preparation of Moloney murine sarcoma virus. […] Another group of mice (20 animals) was administered RPMI-1640 medium as placebo. All compounds were solubilized in RPMI-1640 medium. The mice were observed daily for 20 days and the day of tumor initiation and the day of animal death was recorded for each animal. Statistical analyses were performed by calculating the standard deviation.

C3H/3T3 cells = assay: Microscopic alteration of C3H/3T3 cell culture morphology; type: cell-based, murine; details: concentration that results in a microscopic alteration of the C3H/3T3 cell culture morphology
HIV-2 = HIV-2 induced cytopathicity in MT-4 cells; type: cell-based, human immunodeficiency virus type 2; details: concentration required to inhibit HIV-induced cytopathicity in MT-4 cells by 50%; 5 days
Protocol: (§1) The activity of the compounds against HIV-1 and HIV-2 induced cytopathicity was examined in human lymphocyte MT-4 cells. […] The infected cell cultures were then incubated at 37° C. for 5 days in a humidified CO2-controlled incubator. Then, the cytopathicity of the virus was examined by determination of MT-4 cell viability by trypan blue dye staining.

HIV-1 = HIV-1 induced cytopathicity in MT-4 cells; type: cell-based, human immunodeficiency virus type 1; details: concentration required to inhibit HIV-induced cytopathicity in MT-4 cells by 50%; 5 days
Protocol: as §1

[2] = system: Moloney murine sarcoma virus (MSV); assay: MSV-induced transformation of C3H/3T3 cells; type: cell-based; details: concentration required to inhibit MSV-induced C3H/3T3 cell transformation by 50%; day 6
Protocol: The cells were seeded in 1-ml-wells of a 48-well microtiter plate and exposed to 80 PFU (plaque forming units) for 60-90 minutes. Then, the virus was removed and culture medium containing appropriate concentrations of the test compounds were added (1 ml per well). At day 6 post infection, MSV-induced transformation of the cell culture was examined microscopically.

Structure (SMILES)	MIC (C3H/3T3 cells) [µg/mL]	EC50 HIV-2 (HIV-2) [µg/mL]	EC50 HIV-1 (HIV-1) [µg/mL]	EC50 MSV [2] [µg/mL]	also measured
Nc1nc(N)c2ncn(C[C@H](CF)OCP(=O)(O)O)c2n1 [(R)-FPMPDAP, reference compound]	>100				Mean day of animal death ([1]; single i.p. dose 10 mg/kg): 12.0 ± 1.0 days; Mean day of animal death ([1]; single i.p. dose 25 mg/kg): 14.1 ± 1.5 days; Mean day of animal death ([1]; single i.p. dose 50 mg/kg): 13.9 ± 1.4 days
CCCCNc1nc(N)nc2c1ncn2C[C@@H](C)OCP(=O)(O)O [(R)-9-PMP-6-butyl-DAP, 9-(R)-(2-Phosphonomethoxypropyl)-2-amino-6-butylaminopurine]		9.8 (≈ 27.3 µM)	13.1 (≈ 36.6 µM)	3.27 (≈ 9.13 µM)	
Nc1ncnc2c1ncn2C[C@H](CF)OCP(=O)(O)O [(R)-FPMPA, reference compound]	>100				Mean day of animal death ([1]; single i.p. dose 20 mg/kg): 10.4 ± 0.52 days; Mean day of animal death ([1]; single i.p. dose 50 mg/kg): 11.2 ± 0.92 days
C[C@H](Cn1cnc2c(N(C)C)nc(N)nc21)OCP(=O)(O)O [(R)-9-PMP-6-dimethyl-DAP, 9-(R)-(2-Phosphonomethoxypropyl)-2-amino-6-dimethylaminopurine]		4.2 (≈ 12.7 µM)	2.3 (≈ 6.96 µM)	3.25 (≈ 9.84 µM)	
CCC(C)Nc1nc(N)nc2c1ncn2C[C@@H](C)OCP(=O)(O)O (stereo partly drawn) [(R)-9-PMP-6-(2-butyl)-DAP, 9-(R)-(2-Phosphonomethoxypropyl)-2-amino-6-(2-butyl)aminopurine]		25 ± 15 (≈ 69.8 µM)	30 ± 19 (≈ 83.7 µM)	3.5 (≈ 9.77 µM)	
C[C@H](Cn1cnc2c(=O)[nH]c(N)nc21)OCP(=O)(O)O [(R)-PMPG, 9-(R)-(2-phosphonomethoxypropyl)guanine]	40 (≈ 132 µM)				
C[C@H](Cn1cnc2c(S)ncnc21)OCP(=O)(O)O [(R)-9-PMP-6-thioPu, 9-(R)-(2-Phosphonomethoxypropyl)-6-mercaptopurine]		>100	>100	18 (≈ 59.2 µM)	
Nc1nc(N)c2ncn(C[C@@H](CF)OCP(=O)(O)O)c2n1 [(S)-FPMPDAP, reference compound]	>100				Mean day of animal death ([1]; single i.p. dose 10 mg/kg): 16.7 ± 3.2 days; Mean day of animal death ([1]; single i.p. dose 25 mg/kg): 14.6 ± 2.2 days; Mean day of animal death ([1]; single i.p. dose 50 mg/kg): 16.5 ± 0.71 days
Nc1ncnc2c1ncn2CCOCP(=O)(O)O [PMEA, reference compound]	>100				
Nc1ncnc2c1ncn2C[C@@H](CF)OCP(=O)(O)O [(S)-FPMPA, reference compound]	>100				Mean day of animal death ([1]; single i.p. dose 10 mg/kg): 13.6 ± 2.8 days; Mean day of animal death ([1]; single i.p. dose 20 mg/kg): 17.2 ± 2.2 days; percentage of MSV-infected mice still alive at day 20 post infection ([1]; single i.p. dose 50 mg/kg): 100%; Mean day of animal death ([1]; single i.p. dose 50 mg/kg): > 20 days
C[C@H](Cn1cnc2c(N3CCCCC3)nc(N)nc21)OCP(=O)(O)O [(R)-9-PMP-6-piperidino-DAP, 9-(R)-(2-Phosphonomethoxypropyl)-2-amino-6-piperidinopurine]		>100	>100	12.6 (≈ 34 µM)	
C[C@@H](Cn1cnc2c(N)nc(N)nc21)OCP(=O)(O)O [(S)-PMPDAP, 9-(S)-(2-phosphonomethoxypropyl)-2,6-diaminopurine]	>100				
C[C@@H](Cn1cnc2c(=O)[nH]c(N)nc21)OCP(=O)(O)O [(S)-PMPG, 9-(S)-(2-Phosphonomethoxypropyl)guanine]	8 (≈ 26.4 µM)				
C[C@H](Cn1cnc2c(NC3CCCCC3)nc(N)nc21)OCP(=O)(O)O [(R)-9-PMP-6-cyclohexyl-DAP, 9-(R)-(2-Phosphonomethoxypropyl)-2-amino-6-cyclohexylaminopurine]		7 (≈ 18.2 µM)	8.0 (≈ 20.8 µM)		
